Columns and labels:
[1] = target: T1, MHC class II I-A^b molecules (Mus musculus, UniProt P14434+P14483); test: I-A^b affinity assay (competitive binding against a radiolabeled high-affinity peptide); conditions: purified I-A^b; for peptide binding affinity for I-A^b: unlabeled peptide vs radiolabeled high-affinity competitor peptide
T1 construct: made in house
T1 sequence (P14434 24-256): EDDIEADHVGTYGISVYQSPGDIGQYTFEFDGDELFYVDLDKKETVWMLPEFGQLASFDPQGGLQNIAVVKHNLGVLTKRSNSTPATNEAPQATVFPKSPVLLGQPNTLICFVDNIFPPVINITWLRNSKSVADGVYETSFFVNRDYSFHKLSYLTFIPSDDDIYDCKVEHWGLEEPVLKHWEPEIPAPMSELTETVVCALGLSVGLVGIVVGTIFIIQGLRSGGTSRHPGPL
T1 sequence (P14483 28-265): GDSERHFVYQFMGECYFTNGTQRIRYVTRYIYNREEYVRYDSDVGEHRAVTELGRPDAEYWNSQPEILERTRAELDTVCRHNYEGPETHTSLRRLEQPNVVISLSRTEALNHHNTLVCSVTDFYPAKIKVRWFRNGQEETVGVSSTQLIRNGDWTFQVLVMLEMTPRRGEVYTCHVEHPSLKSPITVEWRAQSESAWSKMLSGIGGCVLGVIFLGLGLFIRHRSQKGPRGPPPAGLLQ
Protocol: FIGS. 2A-2F. Pathogenic AQP4 determinants bind I-A^b with high affinity and elicit proliferation of AQP4: I-A^b-specific TCR-bearing T cells in AQP4-deficient mice. (FIG. 2A) WT or AQP4^−/− mice were immunized s.c. with peptides indicated. Peptide-specific proliferation of draining lymph node cells was measured by 3H-thymidine incorporation (mean±SEM, representative of five experiments). (FIG. 2B) Lymph node cells from AQP4 immunized WT or AQP4^−/− mice were cultured for 3 days with cognate antigen under Th17 polarizing conditions. AQP4 p133-149- and p202-218-specific Th17 cells from AQP4/donors induce paralysis in WT recipient mice. (FIG. 2C) IEDB, an in silico method for predicting determinants within proteins that bind MHC alleles, was used to identify AQP4 amino acid sequences anticipated to bind I-A^b for recognition by AQP4-specific/I-A^b-restricted CD4^+ T cells. 1/IC50 is plotted against the first amino acid for each overlapping AQP4 15 mer. Peaks correspond to increased predicted binding affinity. (FIG. 2D) Purified I-A^b molecules were tested biochemically for peptide binding affinity using a competitive binding assay between a radiolabeled high-affinity competitor peptide and unlabeled peptides (22). Lower IC50 values indicate higher binding affinity. Boxed amino acids designate the core binding regions. (FIGS. 2E-2F) Lymph node T cells isolated from WT or AQP4−/− mice immunized with AQP4 p133-149 or p202-218 were stained with I-A^b:p133-149 and […] tetramers, bead-enriched and analyzed by flow cytometry. […] Each data point represents one mouse. ****p<0.0001 (Mann Whitney U test).
Both AQP4 p133-149 and p202-218 are predicted to bind MHC II (I-A^b) with high affinity according to the Immune Epitope Database (IEDB) (FIG. 2C), an in silico method for predicting determinants within proteins that bind allele-specific MHC molecules for presentation to T cells (21). We have now examined AQP4 peptide affinity for I-A^b biochemically. I-A^b molecules that were purified by affinity chromatography were tested in a competitive binding assay between a radiolabeled high-affinity competitor peptide and unlabeled peptides (22). Indeed, peptides containing the two pathogenic AQP4 T cell determinants bound I-A^b with higher affinity than the nonpathogenic AQP4 p24-35 T cell epitope or MOG p35-55 (FIG. 2D).
I-A^b affinity Assay. Purification of MHC class II I-A^b molecules by affinity chromatography, and the performance of assays based on the inhibition of binding of a high affinity radiolabeled peptide to quantitatively measure peptide binding, were performed as described (22). Lower IC50 values indicate higher binding affinity. Excellent binders have affinities less than 100 nM and good binders have affinities less than 1000 nM.

CD4^+ T cells = test: I-A^b:peptide tetramer binding by flow cytometry after peptide immunization; type: cell-based, mouse
Protocol: FIGS. 4A-4B. Negative selection of AQP4 p133-149-reactive T cells is bypassed partially in mice deficient in thymic AQP4 expression. (FIG. 4A) AQP4^−/− WT, Foxn1cre-AQP4^fl/fl, Aire^−/−, or Foxn1cre-Fezf2^fl/fl mice were immunized s.c. with peptides indicated. Peptide-specific proliferation of draining lymph node cells was measured by 3H-thymidine incorporation (mean±SEM, representative of five experiments). Comparisons within the five experiments for p133-149 at […]: WT vs. AQP4^−/− (p=0.008), WT vs. Foxn1cre-AQP4^fl/fl (p=0.008). (FIG. 4B) Ten days after peptide immunization, CD4^+ T cells from draining lymph nodes were analyzed for I-A^b: peptide tetramer binding by flow cytometry. Each data point represents the frequency (mean±SEM) of CD4^+ T cells bound to cognate antigen-tetramer in a single mouse. […] For p133-149: WT vs. Aire^−/− (p=0.9), WT vs. Foxn1cre-Fezf2^fl/fl (p=0.3). For p202-218: WT vs. Foxn1cre-AQP4^fl/fl (p=0.3), WT vs. Aire^−/− (p=0.06).
Flow cytometry. For analysis of tetramer binding, AQP4 p133-149, p202-218, IRBP p277-289 and hCLIP p87-101 IA^b tetramers conjugated to PE or APC were provided by the National Institute of Allergy and Infectious Diseases Tetramer Core Facility at Emory University. Lymphocytes were coincubated with 1 mg/ml tetramer conjugated to PE or APC for 2 hours at room temperature, washed and enriched using anti-PE magnetic microbeads (Miltenyi) over a magnetic column. Binding to hCLIP tetramer was used as a negative control. Dead cells were excluded using Live/Dead fixable Aqua Dead Cell Stain Kit (Invitrogen), lineage negative cells were excluded using antibodies to CD11b (M1/70), B220 (RA3-6B2) and CD8 (53-6.7) and positive cells were selected using antibodies to CD3 (145-2C11) and CD4 (RM4.5). 123count eBeads (Invitrogen) were used with unenriched and enriched samples for quantification of the frequency of tet^+CD4^+ T cells (total number of tet^+CD4+ T cells divided by total CD4^+ T cells per mouse). For figures showing tetramer staining, flow cytometry of the unenriched cells are shown. For analysis of GFP^+ T cells, mice were perfused with PBS, and the CNS was dissected, minced, digested with collagenase and DNase I (Roche), and isolated over a Ficoll gradient as described previously (39). Live CD4^+ cells were analyzed with a viability stain (Near-IR), and antibodies to CD11b, B220, CD8 and CD4. Apoptosis was analyzed separately using the same antibody staining, followed by Annexin V and 7-AAD staining in Annexin V binding buffer (BioLegend) per manufacturer's instructions. Cells were quantified using 123count eBeads.

Foxn1cre-AQP4^fl/fl mice = test: CNS autoimmunity by direct peptide immunization; type: in vivo, mouse
[2] = AQP4^−/− mice compared with the other strains, cognate I-A^b:peptide tetramer
[3] = Foxn1cre-AQP4^fl/fl (thymic AQP4-deficient) mice compared with WT mice

Sequence | I-A^b binding affinity relative to MOG p35-55 ([1]; competitive binding assay) | peptide binding affinity for I-A^b [1] | peptide binding affinity for I-A^b ([1]; listed as p202-218) | frequency of CD4^+ tet^+ T cells (CD4^+ T cells; [2]) | frequency of CD4^+ tet^+ T cells (CD4^+ T cells; [3]) | CNS autoimmunity by immunization (Foxn1cre-AQP4^fl/fl mice) | frequency of CD4^+ tet^+ T cells (CD4^+ T cells; Foxn1cre-AQP4^fl/fl mice compared with AQP4^−/− mice)
LFAINYTGASMNPARSF [AQP4 p202-218] | more than ten times greater affinity than MOG p35-55 | highest affinity among peptides examined in this report | bound I-A^b avidly | elevated in AQP4^−/− mice in comparison to other strains | did not permit significant restoration |  | 
LYLVTPPSVVGGLGVT [AQP4 p133-149] |  | bound I-A^b avidly |  | significantly elevated in AQP4^−/− mice | significantly elevated in comparison to AQP4 p133-149-specific T cells in WT mice | resistant to CNS autoimmunity | significantly lower than in AQP4^−/− mice

— US20250052751A1, “COMPOSITIONS AND METHODS FOR DIAGNOSING AUTOIMMUNE AQUAPORINOPATHY” (The Regents of the University of California, priority 2023, published 2025)
